This note sets out measurements from patent publication US12612412B2, “Antiviral heterocyclic compounds” (Enanta Pharmaceuticals, Inc., priority 2021, dated 2026).

SMILES strings stand for the structures. pEC50: −log10 of the molar value. Read-outs that look alike come from different tables or passages of the source.

This experiment relates to genotype A, "Long" strain RSV. Description: RSV-A assay (CPE protection in Hep-2 cells, ATPlite readout). The class given is cell-based, Human respiratory syncytial virus (HRSV). Particulars: human respiratory syncytial virus, MOI 0.1, CPE protection. Put shortly:
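Protection from RSV-induced cytopathic effect measured by ATP content (ATPlite) after 5-day culture. Infection used genotype A Long virus at MOI 0.1 on 8,000 Hep-2 cells per well, with compound serially diluted 2-fold; values are EC50.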

The mark [1] stands for this setting: genotype A “Long” strain RSV, read-out: Human RSV-A (“Long”).
[2] abbreviates: RSV-A Long strain, read-out: Human RSV-A (“Long”) EC50.

With `Cc1cccn2cc(C(=O)NC[C@](O)(c3cc4c(c(-c5ccc(F)cc5)n3)OC[C@]4(C)C(N)=O)C(F)(F)F)nc12` [Example 806], the pEC50 under setting [1] is less than 6.70. Same read-out and setting: with `Cc1cccc2nc(C(=O)NC[C@](O)(c3cc4c(c(-c5ccc(F)cc5)n3)OC[C@]4(C)C(N)=O)C(F)(F)F)cn12` [Example 807] the figure was less than 6.70. On the same count and under the same terms, then `C[C@]1(C(N)=O)COc2c1cc([C@@](O)(CNC(=O)c1cn3cc(Cl)ccc3n1)C(F)(F)F)nc2-c1ccc(F)cc1` [Example 808], with greater than 6.70. Still for that read-out and setting: then `C[C@]1(C(N)=O)COc2c1cc([C@@](O)(CNC(=O)c1cn3cc(F)ccc3n1)C(F)(F)F)nc2-c1ccc(F)cc1` [Example 809], with less than 6.70; and `C[C@]1(C(N)=O)COc2c1cc([C@@](O)(CNC(=O)c1cn3cc(C(F)(F)F)ccc3n1)C(F)(F)F)nc2-c1ccc(F)cc1` [Example 810], with less than 6.70; and `CC(C)Oc1ccc2nc(C(=O)NC[C@](O)(c3cc4c(c(-c5ccc(F)cc5)n3)OC[C@]4(C)C(N)=O)C(F)(F)F)cn2c1` [Example 812], with less than 6.70. With `C[C@]1(C(N)=O)COc2c1cc([C@@](O)(CNC(=O)c1cn3cc(OC4CC4)ccc3n1)C(F)(F)F)nc2-c1ccc(F)cc1` [Example 813], under setting [1], the pEC50 was less than 6.70. Same read-out and setting: with `C[C@]1(C(N)=O)COc2c1cc([C@@](O)(CNC(=O)c1cn3cc(OC(F)(F)F)ccc3n1)C(F)(F)F)nc2-c1ccc(F)cc1` [Example 814] the figure was less than 6.70. On to `COc1cc(C(=O)NC[C@](O)(c2cc3c(c(-c4ccc(F)cc4)n2)OC[C@]3(C)C(N)=O)C(F)(F)F)cn2nc(C3CC3)cc12` [Example 879], for which, under setting [2], the pEC50 is less than 6.70. On the same count and under the same terms, with `COc1cc(C(=O)NC[C@](O)(c2cc3c(c(-c4ccc(F)c(Cl)c4)n2)OC[C@]3(C)C(N)=O)C(F)(F)F)cn2nc(C3CC3)cc12` [Example 880] the figure was less than 6.70.

Turning to `COc1cc(C(=O)NC[C@](O)(c2cc3c(c(-c4ccc(F)cc4)n2)OC[C@]3(C)C(N)=O)C(F)(F)F)cn2nc(N)cc12` [Example 881], under setting [2], the pEC50 is greater than 6.70. The same measure, in the same setting: then `COc1cc(C(=O)NCC(O)(c2cc3c(c(Br)n2)OC[C@]3(C)C(N)=O)C(F)(F)F)cc2cn(C3CC3)nc12` (some centres unmarked) [Example 890], with less than 6.70. Still for that read-out and setting: then `COc1cc(C(=O)NC[C@@](O)(c2cc3c(c(-c4ccc(C5CC5)cc4)n2)OC[C@]3(C)C(N)=O)C(F)(F)F)cc2cn(C3CC3)nc12` [Example 892], with less than 6.70; and `COc1cc(C(=O)NC[C@@](O)(c2cc3c(c(-c4ccc5c(c4)OC(F)(F)O5)n2)OC[C@]3(C)C(N)=O)C(F)(F)F)cc2cn(C3CC3)nc12` [Example 894], with less than 6.70. `COc1cc(C(=O)NC[C@@](O)(c2cc3c(c(-c4ccc(C(F)F)cc4)n2)OC[C@]3(C)C(N)=O)C(F)(F)F)cc2cn(C3CC3)nc12` [Example 895]: the pEC50 under setting [2] is less than 6.70. Consider `COc1cc(C(=O)NC[C@@](O)(c2cc3c(c(-c4ccc(OC(F)(F)F)cc4)n2)OC[C@]3(C)C(N)=O)C(F)(F)F)cc2cn(C3CC3)nc12` [Example 897], for which the pEC50 under setting [2] is less than 6.70. The same measure, in the same setting: with `COc1cc(C(=O)NC[C@@](O)(c2cc3c(c(-c4ccc(F)cc4F)n2)OC[C@]3(C)C(N)=O)C(F)(F)F)cc2cn(C3CC3)nc12` [Example 900] the figure was greater than 6.70; with `COc1cc(C(=O)NC[C@](O)(c2cc3c(c(-c4ccc5oc(C)nc5c4)n2)OC[C@]3(C)C(N)=O)C(F)(F)F)cc2cn(C3CC3)nc12` [Example 902], less than 6.70.

Regarding `COc1cc(C(=O)NC[C@](O)(c2cc3c(c(-c4cn(C)nc4C(F)(F)F)n2)OC[C@]3(C)C(N)=O)C(F)(F)F)cc2cn(C3CC3)nc12` [Example 904], the pEC50 under setting [2] is less than 6.70. Still for that read-out and setting: with `COc1ccc(-c2nc([C@](O)(CNC(=O)c3cc(OC)c4nn(C5CC5)cc4c3)C(F)(F)F)cc3c2OC[C@]3(C)C(N)=O)cc1OC` [Example 905] the figure was less than 6.70; with `COc1ccc(-c2nc([C@@](O)(CNC(=O)c3cc(OC)c4nn(C5CC5)cc4c3)C(F)(F)F)cc3c2OC[C@]3(C)C(N)=O)cc1OC` [Example 906], greater than 6.70; with `COc1cc(C(=O)NC[C@@](O)(c2cc3c(c(-c4ccc5c(c4)OCO5)n2)OC[C@]3(C)C(N)=O)C(F)(F)F)cc2cn(C3CC3)nc12` [Example 907], less than 6.70. The same measure, in the same setting: then `COc1cc(C(=O)NC[C@@](O)(c2cc3c(c(-c4ccccc4F)n2)OC[C@]3(C)C(N)=O)C(F)(F)F)cc2cn(C3CC3)nc12` [Example 910], with less than 6.70; and `COc1cc(C(=O)NC[C@](O)(c2cc3c(c(-c4ccc(F)cc4)n2)OC[C@]3(C(N)=O)C(F)F)C(F)(F)F)cc2cn(C3CC3)nc12` [Example 998], with greater than 6.70. On the same count and under the same terms, with `COc1cc(C(=O)NC[C@](O)(c2cc3c(c(-c4ccc(F)c(Cl)c4)n2)OC[C@@]3(CF)C(N)=O)C(F)(F)F)ccc1OC1CC1` [Example 1048] the figure was less than 6.70; with `COc1cc(C(=O)NC[C@](O)(c2cc3c(c(-c4ccc(F)c(Cl)c4)n2)OC[C@]3(C)C(N)=O)C(F)(F)F)cc2cc(C)c(Cl)nc12` [Example 1071], greater than 6.70; with `COc1cc(C(=O)NC[C@](O)(c2cc3c(c(-c4cccc(F)c4Cl)n2)OC[C@]3(C)C(N)=O)C2CC2)cc2cc(C)c(Cl)nc12` [Example 1073], greater than 6.70.

For the compound `Cc1cc2cc(C(=O)NC[C@](O)(c3cc4c(c(-c5ccc(F)cc5)n3)OC[C@]4(C)C(N)=O)C(F)(F)F)cc(OC3CC3)c2nc1Cl` [Example 1075], the pEC50 under setting [2] is greater than 6.70. The same measure, in the same setting: then `Cc1cc2cc(C(=O)NC[C@](O)(c3cc4c(c(-c5ccc(F)c(Cl)c5)n3)OC[C@]4(C)C(N)=O)C(F)(F)F)cc(OC3CC3)c2nc1Cl` [Example 1076], with greater than 6.70; and `Cc1cc2cc(C(=O)NC[C@](O)(c3cc4c(c(-c5ccc(F)c(Cl)c5F)n3)OC[C@]4(C)C(N)=O)C3CC3)cc(OC3CC3)c2nc1Cl` [Example 1077], with greater than 6.70; and `Cc1cc2cc(C(=O)NC[C@](O)(c3cc4c(c(-c5cccc(F)c5Cl)n3)OC[C@]4(C)C(N)=O)C3CC3)cc(OC3CC3)c2nc1Cl` [Example 1078], with greater than 6.70. As for `Cc1cc2cc(C(=O)NC[C@](O)(c3cc4c(c(-c5ccc6c(c5)OC(F)(F)O6)n3)OC[C@]4(C)C(N)=O)C3CC3)cc(OC3CC3)c2nc1Cl` [Example 1079], the pEC50 under setting [2] was greater than 6.70.

Regarding `C[C@]1(C(N)=O)COc2c1cc([C@@](O)(CNC(=O)c1cc(OC3CC3)c3nn(C(F)F)cc3c1)C1CC1)nc2-c1cc(Br)c(F)cc1F` [Example 1086], the pEC50 under setting [2] is greater than 6.70. Still for that read-out and setting: then `COc1cc(C(=O)NC[C@](O)(c2cc3c(c(-c4cccc(F)c4Cl)n2)OC[C@]3(C)C(N)=O)C(F)(F)F)cc2cn(C3CC3)nc12` [Example 1107], with greater than 6.70; and `COc1cc(C(=O)NC[C@](O)(c2cc3c(c(-c4ccc(F)cc4)n2)OC[C@]3(C)C(N)=O)C2CC2)cc2cc(C)nnc12` [Example 1108], with greater than 6.70.

On to `COc1cc(C(=O)NC[C@](O)(c2cc3c(c(-c4ccc(F)cc4)n2)OC[C@]3(C)C(N)=O)C2CC2)cc2cc(C3CC3)nnc12` [Example 1109], for which, under setting [2], the pEC50 was greater than 6.70. For `COc1cc(C(=O)NC[C@](O)(c2cc3c(c(-c4ccc5c(c4)OC(F)(F)O5)n2)OC[C@]3(C)C(N)=O)C(F)(F)F)cc2cc(C)nnc12` [Example 1110], the pEC50 under setting [2] is greater than 6.70. Same read-out and setting: then `COc1cc(C(=O)NC[C@](O)(c2cc3c(c(-c4ccc5c(c4)OC(F)(F)O5)n2)OC[C@]3(C)C(N)=O)C(F)(F)F)cc2cc(C3CC3)nnc12` [Example 1111], with greater than 6.70.
